We go through 1 sequence from paper PMC3115021, “Dynamics of Cdk1 Substrate Specificity during the Cell Cycle” (Molecular Cell, 2011).

Some results are limits rather than exact numbers.

One assay concerns the target T1, Clb4-Cdk1 (Saccharomyces cerevisiae, UniProt P00546+P24871).
T1 construct: made in house
Put plainly: Peptide kinetics with the model substrate (data not shown). In kind it is biochemical. The method, then: (§1) The four major cyclin-Cdk1 complexes used in our experiments seem sufficient for describing
(§2) the general dynamic changes of Cdk1 specificity during the cell cycle, as the rest of the cyclins,
(§3) Clb1 and Clb4 (Grandin and Reed, 1993) as well as Cln3 and Clb6 (Cross et al., 2002; Tyers et
(§4) al., 1993) are less abundant and therefore minor contributors to the total concentration of
(§5) activated Cdk1, and most likely would not yield significant changes to the general model. In
(§6) an intermediate KM (210 μM) for the model substrate (data not shown). However, due to poor
(§7) purification yields, this kinase was excluded from detailed analysis. Additionally, the other G1
(§8) towards the peptide substrate (KM > 1 mM, data not shown).
(§9) Our findings have raised an intriguing question of how cyclins can change the specificity
(§10) of the Cdk1 active site, so that its ability to bind and phosphorylate the consensus site motif is
(§11) altered. These cyclin-specific effects could be due to specific conformational changes induced by
(§12) cyclin in the Cdk1 molecule, resulting in altered accessibility and configuration of its active site.
(§13) of Swe1 to phosphorylate different cyclin-Cdk1 complexes at the active site-gating Y19 residue.
(§14) The other gradually changing feature, the relative differences in RXL-dependent docking
(§15) mechanisms among the B-type cyclin-Cdk1s, could also be due to different specific […]

Another assay addresses Cln1-Cdk1 (Saccharomyces cerevisiae, UniProt P00546+P20437). Described as above. Format: biochemical. How it is done: as §1, §2, §3, §4, §5, §6, §7, §8, §9, §10, §11, §12, §13, §14, §15
A further assay deals with T2, Clb2-Cdk1 (Saccharomyces cerevisiae, UniProt P00546+P24869).
T2 construct: We purified the four cyclin-Cdk1 complexes from yeast; made in house; host or cells: S. cerevisiae strain DOM0077 (gal-CLB2-TAP, sic1 deleted); Cks1 from bacteria
T2 sequence (P00546 2-298 limits assumed): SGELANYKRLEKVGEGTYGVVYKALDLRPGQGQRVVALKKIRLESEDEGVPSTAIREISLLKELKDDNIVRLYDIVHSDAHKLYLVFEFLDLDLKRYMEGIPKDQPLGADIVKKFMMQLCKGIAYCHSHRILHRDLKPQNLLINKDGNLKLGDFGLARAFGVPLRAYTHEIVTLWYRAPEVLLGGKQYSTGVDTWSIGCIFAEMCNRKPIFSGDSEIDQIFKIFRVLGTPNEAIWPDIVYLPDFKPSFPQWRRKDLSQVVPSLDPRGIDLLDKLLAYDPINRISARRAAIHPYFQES
T2 sequence (P24869 2-491 partner limits assumed): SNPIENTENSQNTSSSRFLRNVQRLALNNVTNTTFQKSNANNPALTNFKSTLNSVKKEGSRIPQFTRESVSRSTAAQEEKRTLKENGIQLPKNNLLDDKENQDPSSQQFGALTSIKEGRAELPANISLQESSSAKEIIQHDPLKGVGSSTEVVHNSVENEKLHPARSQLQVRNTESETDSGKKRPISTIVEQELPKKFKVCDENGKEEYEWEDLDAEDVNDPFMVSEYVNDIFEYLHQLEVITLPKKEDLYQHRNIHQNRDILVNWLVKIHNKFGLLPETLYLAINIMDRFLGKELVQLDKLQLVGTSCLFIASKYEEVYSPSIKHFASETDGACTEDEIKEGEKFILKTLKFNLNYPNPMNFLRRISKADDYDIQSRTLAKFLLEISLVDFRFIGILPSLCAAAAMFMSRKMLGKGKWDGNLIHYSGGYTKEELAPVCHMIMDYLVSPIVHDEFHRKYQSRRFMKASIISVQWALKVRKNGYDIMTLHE
T2 sequence (P20486 whole entry partner): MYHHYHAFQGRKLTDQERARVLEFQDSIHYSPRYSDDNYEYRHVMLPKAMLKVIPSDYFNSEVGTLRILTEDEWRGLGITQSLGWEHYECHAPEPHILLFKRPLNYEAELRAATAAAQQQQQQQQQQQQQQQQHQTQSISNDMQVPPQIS
The settings on record: higher specificity for mitotic Clb2-Cdk1 than S phase Clb5-Cdk1; ref Loog and Morgan, 2005; cited from earlier work. An excerpt:
To study how different cyclins modulate the substrate specificity of Cdk1, we performed a quantitative analysis of yeast Cdk1 specificity in complex with each of four cyclins: the G1/S cyclin Cln2, the S phase triggering cyclin Clb5, the G2/M cyclin Clb3, and the mitotic cyclin Clb2. The cellular levels of these four cyclins peak in sequence over the course of the cell cycle (Figure 1A). We purified the four cyclin-Cdk1 complexes from yeast (Figure 1D) and analyzed their kinetic properties with a commonly used optimal model substrate for Cdk1, a peptide derived from the general substrate Histo ...

Sequence of Cln1-Cdk1 (P00546 2-298 limits assumed): as the sequence (P00546 2-298 limits assumed) above
Sequence of Cln1-Cdk1 (P20437 whole entry partner): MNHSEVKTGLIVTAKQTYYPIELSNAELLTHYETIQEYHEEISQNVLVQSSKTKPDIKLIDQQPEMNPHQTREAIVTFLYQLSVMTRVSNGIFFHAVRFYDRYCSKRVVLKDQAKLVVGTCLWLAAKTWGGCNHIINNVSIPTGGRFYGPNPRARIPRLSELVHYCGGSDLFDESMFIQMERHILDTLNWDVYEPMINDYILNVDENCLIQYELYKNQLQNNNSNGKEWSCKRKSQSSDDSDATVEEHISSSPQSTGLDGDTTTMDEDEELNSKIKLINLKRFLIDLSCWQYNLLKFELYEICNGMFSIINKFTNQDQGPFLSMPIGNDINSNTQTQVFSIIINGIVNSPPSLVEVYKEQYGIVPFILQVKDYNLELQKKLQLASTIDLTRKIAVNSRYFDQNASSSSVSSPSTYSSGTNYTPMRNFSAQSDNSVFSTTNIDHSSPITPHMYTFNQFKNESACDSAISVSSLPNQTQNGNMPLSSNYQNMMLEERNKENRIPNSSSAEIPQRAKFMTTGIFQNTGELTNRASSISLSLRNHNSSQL
Sequence of Cln1-Cdk1 (P20486 whole entry partner): as the sequence (P20486 whole entry partner) above
T1 sequence (P00546 2-298 limits assumed): as the sequence (P00546 2-298 limits assumed) above
T1 sequence (P24871 whole entry partner): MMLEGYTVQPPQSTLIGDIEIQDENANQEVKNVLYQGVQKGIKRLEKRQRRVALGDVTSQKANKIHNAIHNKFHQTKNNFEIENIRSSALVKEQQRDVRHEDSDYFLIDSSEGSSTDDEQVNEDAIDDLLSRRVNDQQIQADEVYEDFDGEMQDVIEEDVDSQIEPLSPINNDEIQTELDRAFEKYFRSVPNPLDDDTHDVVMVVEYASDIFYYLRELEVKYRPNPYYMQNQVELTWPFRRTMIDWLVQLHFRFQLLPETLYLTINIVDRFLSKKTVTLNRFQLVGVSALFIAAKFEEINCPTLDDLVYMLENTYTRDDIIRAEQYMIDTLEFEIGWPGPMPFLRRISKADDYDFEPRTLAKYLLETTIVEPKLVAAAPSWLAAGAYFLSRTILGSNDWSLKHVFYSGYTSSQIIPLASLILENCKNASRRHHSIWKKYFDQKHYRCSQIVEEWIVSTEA
T1 sequence (P20486 whole entry partner): as the sequence (P20486 whole entry partner) above

For “PKTPKKAKKL [optimal model substrate for Cdk1, a peptide derived from the general substrate Histone H1]”, the Km on Clb4-Cdk1 is 210 µM; on Cln1-Cdk1 it was over 1000 µM. The “specificity for Clb2-Cdk1 as compared with Clb5-Cdk1” value at Clb2-Cdk1 was “about 20 fold”.
